In patent US11896612B2, “Resurrection of antibiotics that MRSA resists by silver-doped bioactive glass-ceramic particles” (Board of Trustees of Michigan State University, priority 2019, dated 2024):
Entries after “also recorded” stand apart in the source; their conditions may differ.

Assays:
bacteria = details: cited from earlier work
eukaryotic cells = details: cited from earlier work
[1] = tested on: methicillin-resistant S. aureus USA300 JE2; test: Antibacterial test: CFU enumeration of MRSA suspended in PBS (growth-arrested); format: cell-based, Staphylococcus aureus; details: 24 hours; for bacterial inhibition by antibiotic alone: PBS, static, oxacillin 0.1-50 μg/ml, vancomycin up to 10 mg/ml, fosfomycin 0.05-50 μg/ml, gentamicin 0.01 μg/ml
Description: All experiments are conducted using the laboratory derived methicillin-resistant S. aureus USA300 JE2. Cells are streaked for isolation on tryptic soy agar (TSA) and cultured at 37° C. overnight. An isolated colony is then grown in broth (TSB), shaking at 225 rpm at 37° C. overnight. Next, 1 mL solution of MRSA in PBS, normalized to an optical density (OD600 nm) equal to 1 (equivalent to 10^8 CFU/mL) is prepared. The bacterial suspension is mixed in a 1:1 volume ratio, with each of the solutions containing twofold the final concentration of Ag-BG, antibiotic, or the indicated Ag-BG/antibiotic combination. An untreated control is also prepared by mixing the bacterial suspension in a 1:1 volume ratio with PBS.
Bacterial suspensions are placed in a 37° C. incubator for the indicated time. At each time point, an aliquot of the bacterial suspension is removed to enumerate colony forming units (CFU) of the bacteria via serial dilution and plating on TSA. All plates are incubated at 37° C. Quantification of CFU are performed in biological and technical triplicate. Measurements are repeated three times. Standard deviation is indicated as error bars. Statistical analysis is performed using the paired Student's t-test, two tailed, n=9 and p<0.05.
The bactericidal properties of Ag-BG alone, vancomycin alone (vanc) and the combination of Ag-BG with vancomycin (Ag-BG/vanc) were studied against laboratory-derived methicillin-resistant S. aureus (MRSA) USA300 JE241. The bacteria cells were prepared by isolation of a single colony, followed by its inoculation in tryptic soy broth overnight at 37° C. A bacterial suspension was prepared by adjusting the concentration of the overnight culture to 108 colony forming units (CFU)/mL in Phosphate Buffered Saline (PBS). Then, the bacterial suspension was mixed 1:1 with the corresponding treatment (Ag-BG, Ag-BG/vanc or vanc) to a final volume of 1 mL. A negative control was prepared by suspending bacteria 1:1 in PBS. After 24 h of incubation at 37° C., […] of suspension were drawn from the mixture for CFU enumeration in tryptic soy agar plates. The effect of the treatments was evaluated based on the decrease of CFU compared to the negative control. Quantification of CFU was performed in biological and technical triplicates.
Vancomycin (molecular formula: C66H75C12N9O24·HCl, Vancomycin hydrochloride) is a cell-wall targeting antibiotic with no effect against MRSA under growth-arrested conditions and was selected for this example. Here, the concentration dependency of this synergism was evaluated by exposing MRSA to different combinations of Ag-BG/vanc. Two experimental set-ups were considered. Initially, 0.5 mg/mL of vancomycin were delivered together with 1.25, 2.5, 3.75 or 6.5 mg/mL of Ag-BG and then, 2.5 mg/mL of Ag-BG were combined with 0.1, 0.3, 0.5 and 1 mg/mL of vancomycin. The Ag-BG powder was sterilized using UV radiation before exposure to bacteria. The antibiotic treatment was prepared by dilution of vancomycin powder at different concentrations in PBS, and the Ag-BG/vanc samples were prepared by mixing Ag-BG powder with the corresponding vancomycin solution.

[2] = tested on: human mesenchymal stem cells (hBMSC); test: Proliferation of human mesenchymal stem cells, CCK-8; format: cell-based; details: 0.2 mg/mL Ag2O in transwell, 4 days exposure
Description: Primary bone-marrow derived human mesenchymal stem cells (hBMSC) isolated from healthy donor were obtained from the Institute of Regenerative Medicine, Texas A&M University. Frozen vials of cells were thawed and cultured a in α-MEM supplemented with 16% fetal bovine serum, 1% Antibiotic-Antimycotic and 1% L-glutamine (hereafter, growth medium) in a humidified 37° C./5% CO2 incubator. Cells were expanded until 90% confluence to a final passage. Cells were enzymatically lifted, centrifuged for 5 min and re-suspended fresh media. Cells were seeded at a density of 15×10^3 cells/mL on each well of 24-well plate by pipetting 0.5 mL/well. After 24 h, Ag-BGN (5, 10 and 20 mg/mL) were transferred to porous transwells and inside the wells to treat cell for 2, 4, 6, 8 and 10 days. The results were compared to a positive control consisting on cell immersed only in media and a negative control consisting on cells treated with Ag2O exposed using a porous transwell. […]
After each time point, cell viability and proliferation were assessed introducing a CCK-8 kit solution in the wells after removing the transwells. After 2 h, […] were drawn and placed in a 96 well plate and its optical density was measured at 470 nm wavelength. […]

MRSA [3] = test: TEM and SEM imaging of MRSA after exposure; format: cell-based, Staphylococcus aureus; details: 24 hours exposure in PBS
Description: After 24 hours of incubation, solutions are prepared for studies with TEM to observe the morphology and ultrastructural properties of bacteria in each of the tested groups. The cultures are centrifuged and fixed using Karnovsky fixative, consisting of 2.5% glutaraldehyde, 2.5% paraformaldehyde and 0.1 M cacodylate buffer dissolved in deionized water. In the cases of the tested groups with Ag-BG particles, the particles are removed by allowing them to settle to the bottom of the Eppendorf microcentrifuge tubes before centrifugation and fixation. Bacteria pellets are suspended and incubated in fixative for 2 hours at room temperature. Next, the suspensions are centrifuged to remove the fixative. To capture bacteria in a solid matrix, a drop of a 2% agarose deionized water solution is added to the cell pellet. After the agarose solidifies, the matrix is washed three times at room temperature for 15 minutes with 0.1 M cacodylate buffer. A solution of 2% osmium tetroxide is used to stain the bacterial cells for 1 hour at the post-fixation stage. Subsequently, the cubes are washed with deionized water. Dehydration is done by a series of different concentrations of acetone: 25%, 50%, 75%, and 100%. Next, Spurr resin is infiltrated in a series of dilutions in acetone (acetone: resin): 3:1, 1:1, and 100% resin for two days. The cells are embedded in 100% Spurr resin at 60° C. for 24 hours and then, thin sections of less than 100 nm thickness are obtained by ultramicrotome (RMC MYX ultramicrotome) with glass knives and are mounted in bare copper grids. Positive staining is done with 2% uranyl acetate for 7 minutes and lead citrate for 3 minutes. Finally, samples are observed at 100 kV in a JEOL 100CX microscope.
Bacterial morphology upon exposure to Ag-BG particles is studied using SEM. Cells are prepared after 12 hours of exposure. In this case, the Ag-BG particles remain in the solution with the cells and are fixed using 2.5% glutaraldehyde, 2.5% paraformaldehyde, and 0.1 M cacodylate buffer dissolved in deionized water. […]

MRSA [4] = test: Vancomycin susceptibility of MRSA cultured in tryptic soy broth (TSB); format: cell-based, Staphylococcus aureus
Description: Oxacillin and fosfomycin are used at 0.1 and 0.05 μg/ml, respectively—a concentration that is considerably lower than their MIC. Vancomycin (molecular formula: C66H75C12N9O24·HCl, Vancomycin hydrochloride) is selected due to a mechanism of action that is dependent on cell growth. MRSA is susceptible to 0.47 μg/ml of vancomycin when cultured in tryptic soy broth (TSB). However, exposure to vancomycin in growth arrested conditions, such as suspension in phosphate buffered saline (PBS), enhances tolerance to the antibiotic. Cells are exposed to 0.5 mg/ml vancomycin in PBS. […] All antibiotics are purchased from Sigma Aldrich in powder USP Reference Standard and are used without further purification.

| Molecule | bacterial inhibition by antibiotic alone [1] | bacterial ultrastructure by TEM (MRSA [3]) | other results |
| --- | --- | --- | --- |
| silver ions | – | – | minimum bactericidal concentration (bacteria): 0.1 ppm; lowest concentration that induces cytotoxicity (eukaryotic cells): 1.6 ppm |
| Gentamicin | does not inhibit significantly | – | concentration that significantly inhibits MRSA ([1]; static conditions): higher than 0.1 μg/ml |
| [Ag+].[Ag+].[O-2] [Ag2O] | – | – | cell viability [2]: not viable |
| Cc1onc(-c2ccccc2)c1C(=O)N[C@@H]1C(=O)N2[C@@H]1SC(C)(C)[C@@H]2C(=O)O [oxacillin, Oxacillin] | no demonstrable bacterial inhibition | intact cells | – |
| C[C@@H]1O[C@@H]1P(=O)(O)O [fosfomycin, Fosfomycin] | resistant | intact cells | – |
| CN[C@H](CC(C)C)C(=O)N[C@H]1C(=O)N[C@@H](CC(N)=O)C(=O)N[C@H]2C(=O)N[C@H]3C(=O)N[C@H](C(=O)N[C@H](C(=O)O)c4cc(O)cc(O)c4-c4cc3ccc4O)[C@H](O)c3ccc(c(Cl)c3)Oc3cc2cc(c3O[C@@H]2O[C@H](CO)[C@@H](O)[C@H](O)[C@H]2O[C@H]2C[C@](C)(N)[C@H](O)[C@H](C)O2)Oc2ccc(cc2Cl)[C@H]1O [vancomycin, Vancomycin] | not lethal; also recorded: no reduction of CFU/mL | intact cells | concentration to which MRSA is susceptible (MRSA [4]): 0.47 µg/mL |
